From patent US20070099854A1, “Use of pentadienoic acid derivatives for the treatment of hyperuricemia” (priority 2003, published 2007)

Columns and labels:
[1] = tested on: plasma uric acid concentration; assay: Hypouricemic effect of compound A in healthy male volunteers, single oral administration; assay type: in vivo, human (healthy male volunteers); settings: at 24 hours
Method: Hypouricemic effect of compound A in healthy male volunteers
Forty-eight healthy male volunteers received orally either EMD or a placebo as a single administration in the morning. Six doses were administered 50 mg, 100 mg, 200 mg, 400 mg, 800 mg and 1200 mg once daily. In each group of dose, 6 subjects received compound A and 2 subjects received a placebo. Plasma uric acid concentrations were assessed in all dose groups.
The drop of plasma uric acid concentration was around 45% for the lowest tested dose (50 mg) and the maximum effect was observed from the 800 mg dose (80%).
FIG. 1: Mean plasma uric acid concentration in each group of dose before and 24 hours after drug intake (single dose) in subjects receiving compound A.

Row | melting point [°C] | Structure (SMILES) | further results
1 | 110 to 112 | CCOC(=O)/C=C(C)/C=C/C1=Cc2ccccc2OC1 [Example 3a] | –
2 | 226 to 228 | CC(/C=C/C1=Cc2ccccc2OC1)=C\C(=O)O [Example 3b] | –
3 | 164 to 166 | CC(/C=C/C1=Cc2ccccc2OC1(C)C)=C\C(=O)O [Example 4b] | –
4 | 176 | CC(=C/C(=O)O)/C=C/C1=Cc2ccccc2OC1(C)C [Example 5b] | –
5 | 258 to 260 | CC(/C=C/C1=C(c2ccccc2)c2ccccc2OC1)=C\C(=O)O [Example 7b] | –
6 | 216 to 218 | CC1=C(/C=C/C(C)=C/C(=O)O)COc2ccccc21 [Example 11b] | –
7 | 224 to 226 | CC(=C/C(=O)O)/C=C/C1=Cc2ccccc2OC1 [Example 12b] | –
8 | 200 to 202 | CC(/C=C/C1=Cc2ccccc2OC1c1ccccc1)=C\C(=O)O (centres unmarked) [Example 14b] | –
9 | – | COc1ccc2c(c1)C(/C=C/C(C)=C/C(=O)O)=CC(C)(C)CO2 [compound A, (2E,4E)-5-(3,3-dimethyl-7-methoxy-2,3-dihydrobenzoxepin-5-yl)-3-methylpenta-2,4-dienoic acid] | drop of plasma uric acid concentration ([1]; 50 mg (lowest tested dose)): around 45%; change in plasma uric acid concentration ([1]; all dose groups 50-1200 mg): dose dependant decrease; drop of plasma uric acid concentration (maximum effect) ([1]; from the 800 mg dose): 80%
